# “Also recorded” adds a separate entry of the source. Bridges are numbered along the chain shown (N, C = ends). Roman numbers before positions name the chains, in order.
# How the values were obtained:
# [1] = Zn(II)/phosphate challenge, relaxivity, 2.5 mM complex and 2.5 mM Zn(II); ref Laurent et al.; cited from earlier work
# Source text: The stability of MRI contrast agents is often benchmarked by the “ratio index”, defined as the time for the relaxation value to drop to 80% of its initial value under Zn(II)/phosphate challenge. […] Laurent et al. monitored complex integrity using relaxivity under equimolar condi ...
# [2] = clinical agent; ref citation number not given; cited from earlier work
# Source text: These findings advance our understanding of ligand suitability in MRI contrast agent design and illustrate the potential of metallo-coiled coils to surpass the performance limits of traditional inorganic complexes. By exploiting the modular natur ...
# trypsin = assay: 12 µM trypsin (bovine pancreas) in 100 mM HEPES buffer pH 7.5; conditions: 37°C, up to 48 h
# [3] = Circular dichroism folding (% folded from ellipticity at 222 nm); format: physicochemical; conditions: CD 222 nm, no metal, 10 mM HEPES pH 7.0, 293 K, triplicate
# CD thermal unfolding = format: physicochemical; conditions: apo, 10 μM, 10 mM HEPES pH 7.0, CD 222 nm
# Experimental: 2 (A) CD spectra of 0.1 μM and (B) 10 μM KH2-20X and MB1-2 trimers in the absence (apo; KH2-20X, orange; MB1-2, blue) and presence (holo; KH2-20X + TbCl3, red; MB1-2 + TbCl3, turquoise) of 1.0 equiv of TbCl3, recorded at 293 K. (C) CD thermal unfolding profiles of 10 μM trimers monitoring the molar ellipticity at 222 nm: apo MB1-2 (blue), Tb(MB1-2)3 (turquoise), apo KH2-20X (orange), and Tb(KH2-20X) (red). Solid lines indicate forward heating, and dotted lines indicate reverse cooling. All experiments were conducted in HEPES buffer at pH 7.0, with buffer concentrations adjusted to match peptide concentration (0.1 and 10.0 mM for 0.1 and 10.0 μM peptide, respectively). […]
# 10 µM peptide in 10 mM HEPES, 0.1 mM TbCl₃ into 1 µM peptide in 1 mM HEPES, and 0.01 mM TbCl₃ into 0.1 µM peptide in 0.1 mM HEPES (all at pH 7.0). […] The observed ellipticity was then converted into molar ellipticity, where the helical content was calculated as the percentage folded, based on the theoretical maximum ellipticity at 222 nm as reported by Scholtz et al.9 Thermal unfolding data was recorded by monitoring the ellipticity at 222 nm of a 10 μM trimer concentration of MB1-2 and KH2-20X solution in 10 mM HEPES buffer (pH 7.0) in the absence and presence of 10 μM TbCl3, using a Jasco Peltier Type MPTC-513 temperature controller ramping from 20 °C to 85 °C in 0.1°C increments, heating at 1 °C/min. […]
# [4] = Kinetics of Tb(III) binding and coiled coil folding (CD 222 nm / Tb emission 545 nm); format: physicochemical; conditions: 0.1, 1.0 and 10 μM, 10 mM HEPES pH 7.0, 1.0 equiv TbCl3
# [5] = Native mass spectrometry metalation; format: binding; conditions: 10 μM trimer : 10 μM metal, 50 mM ammonium acetate pH 6.8, room temperature, 60 min
# Source text: This preserves noncovalent interactions enabling coiled coil complexes to be detected. […] (C) Representative full Tb(III) emission spectra for each titration point. λex = 280 nm. […] Error bars determined from standard deviation error of three independent repeat experiments. […] page 4: […] Upon successful purification, removal of Tb(III) was confirmed on a small aliquot of cross-linked peptide by fluorescence spectroscopy. Here the absence of enhanced/sensitized Tb(III) emission, at 545 nm, is consistent with complete […] Stock solutions preparation: In all experiments, the concentration of peptide stock […] Once samples were prepared, the concentration of the solutions were checked by UV vis and adjust if necessary. All GdCl3 and TbCl3 stock solutions were freshly […] solutions were also freshly prepared and determined in a similar fashion using EDTA and xylenol orange indicator solution.6 The equivalence of metal added was then adjust to the exact concentration of peptide in the sample. […] in volumetric glassware using MilliQ water. Native mass spectrometry (MS): […] ammonium acetate pH 6.8. The concentrations of the peptides were measured using the […] Metal stock solutions were initially prepared by […] These stock solutions were then […] […] The observed molecular weights were calculated from an average of 3 charge states. […]
# [6] = molecular target: T1, trypsin (bovine pancreas) (Bos taurus, UniProt P00760); assay: in vitro; format: in vitro ADME; conditions: 100 µM, 12 μM trypsin, 100 mM HEPES pH 7.5, 37 °C, HPLC
# T1 construct: from tissue; host or cells: bovine pancreas
# T1 sequence (P00760 24-246): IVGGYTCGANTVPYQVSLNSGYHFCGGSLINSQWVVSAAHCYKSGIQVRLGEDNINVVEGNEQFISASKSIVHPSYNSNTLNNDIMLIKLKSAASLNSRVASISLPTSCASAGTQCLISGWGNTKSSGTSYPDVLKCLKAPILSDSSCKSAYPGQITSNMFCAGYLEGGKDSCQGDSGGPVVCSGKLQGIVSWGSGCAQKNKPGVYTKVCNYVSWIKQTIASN
# Experimental: (§1) page 8: determined as reported periously10 at the data was fitted to the Hills equation using MatLab.11 Stability Studies: Zinc transmetallation experiments: Emission spectra of Tb(III) were recorded for 1.0 µM […] Zinc chloride (ZnCl₂) was then added to each cuvette to give a final concentration of 125 µM Zn(II), and the fluorescence emission spectra were subsequently collected over time. The Tb(III) emission for each sample was normalized to the integrated intensity of the 545 nm emission peak from the initial spectrum. Phosphate and HEPES: Emission spectra of Tb(III) were recorded for 1.0 µM solutions of […] Phosphate buffer prepared from a mixture of sodium monobasic and tribasic phosphate salts (to give a stock concentration of 100 mM at pH 7.0) […] Fluorescence emission spectra were subsequently collected over time. The Tb(III) emission for each sample was normalized to the integrated intensity of the 545 nm emission peak from the initial spectrum. A control was carried out using the same methodology, this time monitoring the change in Tb emission upon the addition of HEPES buffer instead of phosphate. Protease experiments: A trypsin (bovine pancreas) stock solution was prepared (1.5 mg/mL) by dissolving in 100 mM HEPES at pH 7.5. The peptide stock solution was prepared by dissolving the lyophilized peptide in the same buffer solution, and the concentration determined as reported previously. In the case when the peptide was metalated, samples were left to equilibrate with the metal upon addition for around 60 min. prior to the addition of the trypsin. Samples were left to incubate in a water bath at 37°C. At specific time points, 35 µl of each sample were taken and quenched with 35 µl of 4% TFA solution. […] Individual peaks from the HPLC were collected and then analyzed by ESI mass spectrometry in positive mode. Samples were ionised using nanoelectrospray ionisation (TriVersa NanoMate, Advion Interchim Scientific, […] 8 page 27: Figure S14: […] Figure S14: […] pancreas) and 100 mM HEPES buffered at pH 7.5. […] monitored. 27 (1 picture or pasted object on this page, not shown here) page 28: Figure S15: […] Figure S15: […] pancreas) and 100 mM HEPES buffered at pH 7.5. […] monitored. 28 (1 picture or pasted object on this page, not shown here)
# [7] = test system: T2, trypsin (bovine pancreas); assay: in vitro; format: in vitro ADME; conditions: isolated enzyme trypsin, 100 µM, 12 μM trypsin, 100 mM HEPES pH 7.5, 37 °C, HPLC, trimers lacking C-terminal G-NH2 or Ac-G IAAIEQK counted
# T2 construct: from tissue; host or cells: bovine pancreas
# Experimental: as §1
molecule,measurement,setting,value
CNC[C@H](O)[C@@H](O)[C@H](O)[C@H](O)CO.O=C([O-])CN1CCN(CC(=O)[O-])CCN(CC(=O)O)CCN(CC(=O)[O-])CC1.[Gd+3] [Dotarem],ratio index (time for relaxation value to drop to 80% of initial value),[1],exceeds 5000 min
O=C([O-])CN1CCN(CC(=O)[O-])CCN(CC(=O)[O-])CCN(CC(=O)[O-])CC1.[Gd+3] [Gd-DOTA],r 1 relaxivity at 1.5 T,[2],4.3 mM^–1 s^–1
same,r 2 relaxivity at 1.5 T,[2],5.7 mM^–1 s^–1
CNC[C@H](O)[C@@H](O)[C@H](O)[C@H](O)CO.CNC[C@H](O)[C@@H](O)[C@H](O)[C@H](O)CO.O=C([O-])CN(CCN(CC(=O)[O-])CC(=O)O)CCN(CC(=O)[O-])CC(=O)O.[Gd+3] [Magnevist],ratio index (time for relaxation value to drop to 80% of initial value),[1],~250 min
Ac-G IAAIEQK IAANEWK DAAIEQK IAAIEQK IAAIEQK G-NH2 [MB1-2],cleaved bond,trypsin,"Lys-I, within 30 min; also recorded: Lys15-D, within 30 min; also recorded: Lys-G, within 30 min"
Ac-G IAAIEQK IAANEWK DAAIEQK IAAIEQK IAAIEQK G-NH2 [Tb(MB1-2)3],cleaved bond,trypsin,"Lys-G, major"
Ac-G IAAIEQK IAANEWK DAAIXQK IAAIEQK IAAIEQK G-NH2 [KH2-20X],cleaved bond,trypsin,"Lys-G, major, 30 min; also recorded: Lys-I, 30 min"
same,fragment found,trypsin,"trimeric cross-linked IAANEWK DAAIEQK (peak 5), 30 min"
same,not cleaved,trypsin,uncleaved IAANEWK DAAIEQK stretch; individual IAANEWK and DAAIEQK fragments absent
Ac-G IAAIEQK IAANEWK DAAIXQK IAAIEQK IAAIEQK G-NH2 [Tb(KH2-20X)],cleaved bond,trypsin,"Lys-G, major; also recorded: Lys-I"
"I: Ac-GIAAIEQKIAANEWKDAAIEQKIAAIEQKIAAIEQKG-NH2 / II: Ac-GIAAIEQKIAANEWKDAAIEQKIAAIEQKIAAIEQKG-NH2 / III: Ac-GIAAIEQKIAANEWKDAAIEQKIAAIEQKIAAIEQKG-NH2 (amide I:15-II:20, I:20-III:15, II:15-III:20) [KH2-20X]",% apo folding (10.0 μM trimer),[3],96 ± 3%
same,folding over the temperature range 20-85 °C,CD thermal unfolding,remain well-folded throughout the entire temperature range
same,rate of Tb(III) binding (sensitized emission 545 nm),[4],rapid across all tested concentrations
same,% metalation by native mass spectrometry,[5],95–100%
same,"abundance of trimeric cross-linked IAANEWK DAAIEQK fragment at 30 min, apo",[6],5%
same,"abundance of trimeric cross-linked IAANEWK DAAIEQK fragment at 6 h, apo",[6],20%
same,remaining at 0.5 h,"[7]; read-out: % remaining intact as trimers after 30 min trypsin, apo",~74%
same,remaining at 6 h,"[7]; read-out: % remaining intact as trimers after 6 h trypsin, apo",~45%

# Source: article PMC12636026 (Journal of the American Chemical Society, 2025)
